Earlier results on 2 compounds are cited in patent publication US20100047803A1, “BIOMARKERS FOR ACETAMINOPHEN TOXICITY” (priority 2008, published 2010).

For data set [1] the following is noted: administration after hepatic failure has developed.
In data set [2] the test system is CYP2E1, CYP1A2, and CYP3A4. The conditions noted are these: by CYP2E1, CYP1A2, and CYP3A4.

Regarding `CC(=O)N[C@@H](CS)C(=O)O` [N-acetylcysteine], in data set [1], the reduction in mortality is on record as 21-28%.

Take `CC(=O)Nc1ccc(O)cc1` [acetaminophen, Acetaminophen]: in data set [2], the “share of acetaminophen converted to NAPQI” value is 5 to 9%.
